From PubChem BioAssay (NCI)
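Dose response: 5 concentrations. Exposure: 48 h. Format: 96-well plates. Endpoint: linear interpolation; highest concentration if not reached. TGI is the concentration that stops growth completely.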 Where a SMILES comes first, the peptide text is derived from it. The star is where a group is joined. Cbz = O=C(OCc1ccccc1)*; Boc = CC(C)(C)OC(=O)*; Bn = c1ccc(C*)cc1

How the values were obtained:
Assay in all cases: growth of human tumour cells (NCI), 48 h
786-0 renal = system: 786-0 renal
COLO 205 colon = system: COLO 205 colon
HL-60(TB) leukemia = system: HL-60(TB) leukemia
HS 578T breast = system: HS 578T breast
M14 melanoma = system: M14 melanoma
MDA-MB-435 = system: MDA-MB-435
NCI/ADR-RES ovarian = system: NCI/ADR-RES ovarian
OVCAR-5 ovarian = system: OVCAR-5 ovarian
SF-295 CNS = system: SF-295 CNS
SF-539 CNS = system: SF-539 CNS
SK-MEL-2 melanoma = system: SK-MEL-2 melanoma
SK-MEL-5 melanoma = system: SK-MEL-5 melanoma
SK-OV-3 ovarian = system: SK-OV-3 ovarian
UO-31 renal = system: UO-31 renal
EKVX NSCLC = system: EKVX NSCLC
HCC-2998 colon = system: HCC-2998 colon
OVCAR-4 ovarian = system: OVCAR-4 ovarian
SK-MEL-28 melanoma = system: SK-MEL-28 melanoma
MALME-3M melanoma = system: MALME-3M melanoma

| SMILES | TGI (786-0 renal) [µM] | TGI (COLO 205 colon) [µM] | TGI (HL-60(TB) leukemia) [µM] | TGI (HS 578T breast) [µM] | TGI (M14 melanoma) [µM] | TGI (MDA-MB-435) [µM] | TGI (NCI/ADR-RES ovarian) [µM] | TGI (OVCAR-5 ovarian) [µM] | TGI (SF-295 CNS) [µM] | TGI (SF-539 CNS) [µM] | TGI (SK-MEL-2 melanoma) [µM] | TGI (SK-MEL-5 melanoma) [µM] | TGI (SK-OV-3 ovarian) [µM] | TGI (UO-31 renal) [µM] | TGI (EKVX NSCLC) [µM] | TGI (HCC-2998 colon) [µM] | TGI (OVCAR-4 ovarian) [µM] | TGI (SK-MEL-28 melanoma) [µM] | TGI (MALME-3M melanoma) [µM] |
| --- | --- | --- | --- | --- | --- | --- | --- | --- | --- | --- | --- | --- | --- | --- | --- | --- | --- | --- | --- |
| C=C[C@H]1CC[C@H]2[C@@H]3CC=C4C[C@@H](OC5OCC(O)C(O)C5O)CC[C@]4(C)[C@H]3CC[C@]12C (stereo partly drawn) | 34.1 | > 100 | > 100 | 48.3 | 40.9 | 47.8 | 38.1 | 28.1 | 29.7 | 28.6 | 34.5 | > 100 | 28.5 | 30 |  |  |  |  |  |
| N#CCCSC1SC(=C2SC3=C(SCCS3)S2)SC1SCCC#N (stereo not drawn) | > 100 | > 100 | > 100 | > 100 | > 100 | > 100 | > 100 | > 100 | > 100 | > 100 | > 100 | > 100 |  | > 100 | > 100 | > 100 | > 100 | > 100 |  |
| COc1ccc(C(=O)c2sc(Nc3ccccc3)nc2N)cc1 | > 100 |  |  | > 100 | > 100 |  | > 100 | > 100 | > 100 | > 100 | > 100 | > 100 | > 100 | > 100 | > 100 | > 100 | > 100 | > 100 | > 100 |
| CCN(CC)CCC1CCCCN1CC(=O)N1c2ccccc2NC(=O)c2ccccc21 (stereo not drawn) | > 100 | > 100 | > 100 | > 100 | > 100 | > 100 |  | > 100 | > 100 | > 100 | > 100 | > 100 | > 100 | > 100 | > 100 | > 100 | > 100 | > 100 | > 100 |
| C=CC(C)(C)C(=C)C(=O)N(C)c1ccccc1I | > 100 | > 100 |  | > 100 | > 100 | > 100 | > 100 | > 100 | > 100 |  | > 100 | > 100 | > 100 | > 100 | > 100 | > 100 | > 100 | > 100 |  |
| CC(C)(C)OC(=O)NC(Cc1ccc(OCc2ccccc2)cc1)C(=O)NC(CCCCNC(=O)OCc1ccccc1)C(=O)O (stereo not drawn) (Boc-Tyr(Bn)-Lys(Cbz)-OH; configuration not given here) | > 100 | > 100 | 86.9 | > 100 | > 100 |  |  | > 100 |  |  | 80 | > 100 |  | > 100 | > 100 | > 100 |  | 44.2 | > 100 |
| O=C1NC(=S)NC(=O)C1C(c1ccc([N+](=O)[O-])cc1)C1C(=O)NC(=S)NC1=O | > 100 | > 100 | > 100 | > 100 | > 100 | > 100 | > 100 | > 100 | > 100 |  | > 100 | > 100 |  | > 100 | > 100 |  | > 100 | > 100 |  |
| CCOP(=O)(OCC)/C(C#N)=C/c1ccc(-c2ccc(F)cc2F)o1 | 27.4 | 30.7 | 34.9 |  | 31.7 | 27 | 58.9 | 31.7 | 30.8 | 35.8 | 44 | 35.7 | 26.9 | 26.3 | 31 | 27.6 | 33.4 | 28.1 | 33.4 |
| CCOC(=O)NC(C(=O)OCC)C(F)(F)F (stereo not drawn) | > 100 | > 100 | 69.9 | > 100 | > 100 |  | > 100 | > 100 | > 100 | > 100 | > 100 | > 100 | > 100 | > 100 | > 100 | > 100 |  | > 100 | > 100 |
| OCC1OC(NCCNCCNC2OC(CO)C(O)C(O)C2O)C(O)C(O)C1O (stereo not drawn) | > 100 | > 100 | > 100 | > 100 | > 100 |  | > 100 | > 100 | > 100 | > 100 | > 100 | > 100 | > 100 | > 100 | > 100 | > 100 |  | > 100 | > 100 |
| OCC1OC(Oc2cc(O)cc(/C=C/c3ccc(O)cc3)c2)C(O)C(O)C1O (stereo not drawn) | > 100 |  | > 100 | > 100 |  | > 100 | > 100 | > 100 | > 100 | > 100 | > 100 | > 100 | > 100 | > 100 | > 100 |  | > 100 | > 100 |  |
| C/C(=N\NC(=S)NC1CCCC1)c1ccccn1 | > 100 | 26.8 |  | > 100 | 15.7 | > 75.6 |  | > 100 | > 43.6 | 7.52 | > 100 | 13.2 | > 100 | 22.3 | > 100 | > 100 | > 100 | > 100 | > 28.6 |
